# Experimental data as given in PMC4770715, “LIM kinase inhibitors disrupt mitotic microtubule organization and impair tumor cell proliferation” (Oncotarget, 2015).
# Key:
# Test in all cases: biochemical
# Set-up in all cases: KINOMEscan active-site competition binding, percent of control (100 = no competition)
# Conditions in all cases: competition binding, percent control
# ROS1 = ROS1 (Homo sapiens, UniProt P08922)
# LIMK2 = LIMK2 (Homo sapiens, UniProt P53671)
# PRP4 = biological target: T1, PRP4 (Homo sapiens, UniProt Q13523)
# T1 construct: gene PRPF4B
# T1 sequence (Q13523 whole entry): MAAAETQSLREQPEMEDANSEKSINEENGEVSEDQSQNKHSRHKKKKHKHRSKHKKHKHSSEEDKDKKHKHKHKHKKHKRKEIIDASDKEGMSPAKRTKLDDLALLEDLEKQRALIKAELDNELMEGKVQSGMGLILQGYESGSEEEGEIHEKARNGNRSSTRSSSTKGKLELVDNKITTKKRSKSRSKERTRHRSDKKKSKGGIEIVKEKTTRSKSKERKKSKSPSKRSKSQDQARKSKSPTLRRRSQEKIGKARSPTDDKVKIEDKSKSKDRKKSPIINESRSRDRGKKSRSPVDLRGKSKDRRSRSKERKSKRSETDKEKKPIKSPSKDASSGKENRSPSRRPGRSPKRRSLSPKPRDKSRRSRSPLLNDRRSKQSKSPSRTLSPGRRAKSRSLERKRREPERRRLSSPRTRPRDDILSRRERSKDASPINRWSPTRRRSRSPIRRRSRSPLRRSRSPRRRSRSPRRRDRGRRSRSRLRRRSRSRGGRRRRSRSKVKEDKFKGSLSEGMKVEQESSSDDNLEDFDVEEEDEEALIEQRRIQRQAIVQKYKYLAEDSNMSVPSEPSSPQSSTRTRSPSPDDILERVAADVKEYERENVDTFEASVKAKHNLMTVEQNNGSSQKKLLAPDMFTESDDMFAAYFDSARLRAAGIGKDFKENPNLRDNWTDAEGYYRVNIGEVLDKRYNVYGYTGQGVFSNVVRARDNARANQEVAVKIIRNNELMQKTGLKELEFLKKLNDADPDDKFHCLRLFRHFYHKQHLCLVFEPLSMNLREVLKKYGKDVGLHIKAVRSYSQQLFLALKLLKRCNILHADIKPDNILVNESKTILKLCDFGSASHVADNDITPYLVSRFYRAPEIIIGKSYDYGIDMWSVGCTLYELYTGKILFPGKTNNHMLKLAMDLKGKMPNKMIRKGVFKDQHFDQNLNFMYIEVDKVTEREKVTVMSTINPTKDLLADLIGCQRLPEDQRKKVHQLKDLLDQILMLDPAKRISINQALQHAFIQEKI
# [1] = biological target: T2, JAK1(JH2domain-pseudokinase) (Homo sapiens, UniProt P23458)
# T2 construct: JH2domain-pseudokinase
# CAMK2A = CAMK2A (Homo sapiens, UniProt Q9UQM7)
# CAMK2A, sequence (Q9UQM7 whole entry): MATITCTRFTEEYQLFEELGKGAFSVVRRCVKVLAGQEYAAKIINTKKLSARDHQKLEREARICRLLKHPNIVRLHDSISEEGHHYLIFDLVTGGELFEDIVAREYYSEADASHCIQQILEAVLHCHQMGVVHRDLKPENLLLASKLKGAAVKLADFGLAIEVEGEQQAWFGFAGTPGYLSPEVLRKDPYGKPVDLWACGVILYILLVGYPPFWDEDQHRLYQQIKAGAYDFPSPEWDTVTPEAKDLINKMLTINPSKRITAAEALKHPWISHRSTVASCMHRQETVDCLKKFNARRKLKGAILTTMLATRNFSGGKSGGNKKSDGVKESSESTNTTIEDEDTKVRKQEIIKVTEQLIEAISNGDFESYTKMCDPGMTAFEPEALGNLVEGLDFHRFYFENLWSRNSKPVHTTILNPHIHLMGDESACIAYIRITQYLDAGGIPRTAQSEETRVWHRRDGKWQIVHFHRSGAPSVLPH
# EGFR = EGFR (Homo sapiens, UniProt P00533)
# p38-delta = biological target: T3, p38-delta (Homo sapiens, UniProt O15264)
# T3 construct: gene MAPK13
# FES = FES (Homo sapiens, UniProt P07332)
# FES, sequence (P07332 whole entry): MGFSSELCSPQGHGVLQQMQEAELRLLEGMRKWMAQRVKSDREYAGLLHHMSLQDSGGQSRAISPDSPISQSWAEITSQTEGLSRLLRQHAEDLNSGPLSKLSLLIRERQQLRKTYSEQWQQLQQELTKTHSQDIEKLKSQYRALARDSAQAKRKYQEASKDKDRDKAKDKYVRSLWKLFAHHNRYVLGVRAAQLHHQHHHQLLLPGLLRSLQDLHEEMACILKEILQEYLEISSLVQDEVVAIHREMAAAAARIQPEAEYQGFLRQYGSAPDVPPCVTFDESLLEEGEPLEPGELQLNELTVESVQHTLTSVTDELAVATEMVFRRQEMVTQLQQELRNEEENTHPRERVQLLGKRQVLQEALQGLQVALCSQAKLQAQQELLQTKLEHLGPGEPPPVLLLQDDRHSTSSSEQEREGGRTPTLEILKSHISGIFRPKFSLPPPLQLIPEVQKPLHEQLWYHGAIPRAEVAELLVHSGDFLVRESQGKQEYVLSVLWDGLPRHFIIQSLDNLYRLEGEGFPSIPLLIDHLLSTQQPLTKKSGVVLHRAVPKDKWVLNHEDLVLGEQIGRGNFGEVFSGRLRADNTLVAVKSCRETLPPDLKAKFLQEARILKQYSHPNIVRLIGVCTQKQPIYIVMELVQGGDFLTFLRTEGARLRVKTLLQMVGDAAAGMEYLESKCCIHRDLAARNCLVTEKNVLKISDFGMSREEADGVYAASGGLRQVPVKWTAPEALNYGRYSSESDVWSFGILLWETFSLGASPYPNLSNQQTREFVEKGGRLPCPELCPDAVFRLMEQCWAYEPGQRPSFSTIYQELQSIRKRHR
# DDR1 = DDR1 (Homo sapiens, UniProt Q08345)
# MTOR = MTOR (Homo sapiens, UniProt P42345)
# KIT(V559D,T670I) = KIT(V559D,T670I) (Homo sapiens, UniProt P10721, T670I/V559D)
# SgK110 = biological target: T4, SgK110 (Homo sapiens, UniProt P0C264)
# T4 construct: gene SBK3
# T4 sequence (P0C264 whole entry): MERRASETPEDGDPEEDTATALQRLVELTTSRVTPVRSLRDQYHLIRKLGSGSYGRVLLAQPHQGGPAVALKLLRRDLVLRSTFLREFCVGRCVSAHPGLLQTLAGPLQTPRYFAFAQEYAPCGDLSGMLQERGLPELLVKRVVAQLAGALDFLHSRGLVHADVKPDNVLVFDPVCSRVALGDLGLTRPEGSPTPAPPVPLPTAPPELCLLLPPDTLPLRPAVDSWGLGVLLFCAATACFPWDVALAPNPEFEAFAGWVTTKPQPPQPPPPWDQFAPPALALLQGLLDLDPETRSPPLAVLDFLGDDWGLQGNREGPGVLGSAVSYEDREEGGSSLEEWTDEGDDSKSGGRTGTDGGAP
# FLT3(D835Y) = FLT3(D835Y) (Homo sapiens, UniProt P36888, D835Y)
# CSNK1A1L = CSNK1A1L (Homo sapiens, UniProt Q8N752)
# GSK3B = GSK3B (Homo sapiens, UniProt P49841)
# GSK3B, sequence (P49841 whole entry): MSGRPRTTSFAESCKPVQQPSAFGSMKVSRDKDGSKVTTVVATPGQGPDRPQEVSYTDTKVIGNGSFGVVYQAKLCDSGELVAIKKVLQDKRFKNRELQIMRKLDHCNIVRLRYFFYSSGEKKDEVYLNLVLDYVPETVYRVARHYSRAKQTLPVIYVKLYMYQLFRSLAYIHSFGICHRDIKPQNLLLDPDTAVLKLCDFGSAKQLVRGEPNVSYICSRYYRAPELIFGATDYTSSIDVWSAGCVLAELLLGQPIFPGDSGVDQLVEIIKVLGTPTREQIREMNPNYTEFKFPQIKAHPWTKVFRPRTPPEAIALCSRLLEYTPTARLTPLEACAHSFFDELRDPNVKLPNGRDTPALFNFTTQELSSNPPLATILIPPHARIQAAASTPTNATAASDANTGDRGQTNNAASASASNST
# EGFR(E746-A750del) = EGFR(E746-A750del) (Homo sapiens, UniProt P00533, DEL746-750)
# EGFR(E746-A750del), sequence (P00533 with tags, fused parts or gaps DEL746-750): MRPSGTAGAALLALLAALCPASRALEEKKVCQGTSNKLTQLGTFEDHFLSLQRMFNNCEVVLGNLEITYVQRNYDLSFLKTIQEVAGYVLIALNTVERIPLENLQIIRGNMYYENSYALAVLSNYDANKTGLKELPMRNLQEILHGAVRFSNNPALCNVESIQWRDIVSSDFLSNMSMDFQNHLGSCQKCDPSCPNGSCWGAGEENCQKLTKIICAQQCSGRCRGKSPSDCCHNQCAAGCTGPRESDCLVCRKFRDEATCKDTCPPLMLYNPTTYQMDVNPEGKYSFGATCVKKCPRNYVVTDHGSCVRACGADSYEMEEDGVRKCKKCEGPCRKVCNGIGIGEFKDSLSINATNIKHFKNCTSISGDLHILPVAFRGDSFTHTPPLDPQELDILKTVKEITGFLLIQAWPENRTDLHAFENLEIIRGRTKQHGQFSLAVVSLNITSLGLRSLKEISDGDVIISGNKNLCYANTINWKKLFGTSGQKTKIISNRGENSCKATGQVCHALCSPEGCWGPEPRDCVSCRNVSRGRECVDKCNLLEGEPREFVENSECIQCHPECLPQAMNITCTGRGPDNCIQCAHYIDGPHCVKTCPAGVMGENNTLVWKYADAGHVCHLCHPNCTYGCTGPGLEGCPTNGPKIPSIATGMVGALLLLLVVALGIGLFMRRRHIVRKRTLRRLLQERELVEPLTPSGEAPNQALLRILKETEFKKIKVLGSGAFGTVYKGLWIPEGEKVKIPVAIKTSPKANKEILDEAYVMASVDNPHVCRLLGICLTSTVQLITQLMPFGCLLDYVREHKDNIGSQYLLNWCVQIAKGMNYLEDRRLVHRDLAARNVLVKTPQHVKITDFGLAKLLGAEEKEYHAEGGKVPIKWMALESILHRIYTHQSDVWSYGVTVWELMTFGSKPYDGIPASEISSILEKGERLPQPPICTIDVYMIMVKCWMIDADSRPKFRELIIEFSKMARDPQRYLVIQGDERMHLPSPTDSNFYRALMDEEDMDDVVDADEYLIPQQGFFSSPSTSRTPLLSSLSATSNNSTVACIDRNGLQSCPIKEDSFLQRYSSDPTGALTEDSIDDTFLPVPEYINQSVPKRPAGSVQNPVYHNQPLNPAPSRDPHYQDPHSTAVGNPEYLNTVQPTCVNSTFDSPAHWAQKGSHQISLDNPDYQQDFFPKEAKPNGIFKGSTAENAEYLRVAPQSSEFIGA
# GRK4 = GRK4 (Homo sapiens, UniProt P32298)
# AMPK-alpha1 = biological target: T5, AMPK-alpha1 (Homo sapiens, UniProt Q13131)
# T5 construct: gene PRKAA1
# ACVR1B = ACVR1B (Homo sapiens, UniProt P36896)
# MAP3K1 = MAP3K1 (Homo sapiens, UniProt Q13233)
# [2] = biological target: T6, RPS6KA5(Kin.Dom.2-C-terminal) (Homo sapiens, UniProt O75582)
# T6 construct: Kin.Dom.2-C-terminal
# [3] = biological target: T7, ABL1(H396P)-phosphorylated (Homo sapiens, UniProt P00519, H396P)
# T7 construct: phosphorylated
# LIMK2, sequence (P53671 whole entry): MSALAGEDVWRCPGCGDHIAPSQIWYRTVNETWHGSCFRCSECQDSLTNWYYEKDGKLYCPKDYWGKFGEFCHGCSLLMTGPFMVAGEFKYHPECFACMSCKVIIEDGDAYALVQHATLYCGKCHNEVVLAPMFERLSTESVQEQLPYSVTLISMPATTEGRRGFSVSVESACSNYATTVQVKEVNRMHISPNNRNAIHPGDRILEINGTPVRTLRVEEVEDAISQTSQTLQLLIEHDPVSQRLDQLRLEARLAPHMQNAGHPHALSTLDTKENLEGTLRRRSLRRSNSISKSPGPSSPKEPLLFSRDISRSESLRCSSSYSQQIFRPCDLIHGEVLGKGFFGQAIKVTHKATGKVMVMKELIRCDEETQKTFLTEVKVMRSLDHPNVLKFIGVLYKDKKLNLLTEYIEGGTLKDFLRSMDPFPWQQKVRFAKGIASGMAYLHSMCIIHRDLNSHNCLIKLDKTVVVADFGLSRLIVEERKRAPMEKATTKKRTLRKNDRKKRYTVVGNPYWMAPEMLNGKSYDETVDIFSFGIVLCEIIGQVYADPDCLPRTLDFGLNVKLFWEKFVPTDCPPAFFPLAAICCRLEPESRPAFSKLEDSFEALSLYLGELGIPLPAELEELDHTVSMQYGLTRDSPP
smiles,measurement,setting,value
"COc1ccc(-c2cnccc2-c2cnc(NC(=O)C(C)C)s2)c(C(F)(F)F)c1 [CRT0105446, N-{5-[3-(4-Methoxy-2-trifluoromethyl-phenyl)-pyridin-4-yl]-hiazol-2-yl}-isobutyramide]",remaining binding at 10 µM,ROS1,100%
same,remaining binding at 10 µM,LIMK2,1.1%
same,remaining binding at 10 µM,PRP4,100%
same,remaining binding at 10 µM,[1],92%
same,remaining binding at 10 µM,CAMK2A,82%
same,remaining binding at 10 µM,EGFR,100%
same,remaining binding at 10 µM,p38-delta,97%
same,remaining binding at 10 µM,FES,87%
same,remaining binding at 10 µM,DDR1,83%
same,remaining binding at 10 µM,MTOR,64%
same,remaining binding at 10 µM,"KIT(V559D,T670I)",74%
same,remaining binding at 10 µM,SgK110,100%
same,remaining binding at 10 µM,FLT3(D835Y),20%
same,remaining binding at 10 µM,CSNK1A1L,96%
same,remaining binding at 10 µM,GSK3B,82%
same,remaining binding at 10 µM,EGFR(E746-A750del),100%
same,remaining binding at 10 µM,GRK4,100%
same,remaining binding at 10 µM,AMPK-alpha1,1.1%
same,remaining binding at 10 µM,ACVR1B,82%
same,remaining binding at 10 µM,MAP3K1,88%
same,remaining binding at 10 µM,[2],86%
same,remaining binding at 10 µM,[3],82%
"Cc1ccc(-c2cnccc2-c2cnc(Nc3ccc(O)cc3)s2)c(Cl)c1 [CRT0105950, 4-{5-[3-(2-Chloro-4-methyl-phenyl)-pyridin-4-yl]-thiazol-2-ylamino}-phenol]",remaining binding at 10 µM,ROS1,100%
same,remaining binding at 10 µM,LIMK2,0%
same,remaining binding at 10 µM,PRP4,100%
same,remaining binding at 10 µM,[1],74%
same,remaining binding at 10 µM,CAMK2A,33%
same,remaining binding at 10 µM,EGFR,53%
same,remaining binding at 10 µM,p38-delta,100%
same,remaining binding at 10 µM,FES,93%
same,remaining binding at 10 µM,DDR1,0.1%
same,remaining binding at 10 µM,MTOR,35%
same,remaining binding at 10 µM,"KIT(V559D,T670I)",36%
same,remaining binding at 10 µM,SgK110,25%
same,remaining binding at 10 µM,FLT3(D835Y),1.2%
same,remaining binding at 10 µM,CSNK1A1L,74%
same,remaining binding at 10 µM,GSK3B,86%
same,remaining binding at 10 µM,EGFR(E746-A750del),78%
same,remaining binding at 10 µM,GRK4,89%
same,remaining binding at 10 µM,AMPK-alpha1,2.1%
same,remaining binding at 10 µM,ACVR1B,76%
same,remaining binding at 10 µM,MAP3K1,71%
same,remaining binding at 10 µM,[2],89%
same,remaining binding at 10 µM,[3],72%
